14 compounds from patent US11161856B2 (H. Lundbeck A/S, priority 2017, dated 2021) can be followed below.

Common to all, as to assay type: biochemical
Assay [1] has as its target T1, MAGL (Homo sapiens, UniProt Q99685).
T1 construct: Proteomes (human prefrontal cortex or cell membrane fractions); from tissue
T1 sequence (Q99685 1-303): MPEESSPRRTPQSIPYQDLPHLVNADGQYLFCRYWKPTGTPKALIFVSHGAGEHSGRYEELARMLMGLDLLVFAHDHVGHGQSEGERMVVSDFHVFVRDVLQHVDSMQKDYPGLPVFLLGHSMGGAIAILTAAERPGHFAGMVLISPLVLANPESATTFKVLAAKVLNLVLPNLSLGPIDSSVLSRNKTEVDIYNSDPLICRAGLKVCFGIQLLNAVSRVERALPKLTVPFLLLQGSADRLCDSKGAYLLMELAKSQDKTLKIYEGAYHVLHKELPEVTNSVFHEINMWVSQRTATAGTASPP
Put plainly: In vitro competitive activity-based protein profiling (FP-Rh or HT-01 probe, gel-based). Set-up: IC50 MGLL PC3 (Human, μM) / IC50 MGLL PFC (Human, μM): scale not given here. Conditions: for % Inh MGLL PFC (Human, μM): prefrontal cortex (PFC) proteome; for % Inh MGLL PFC (Human, μM) / % Inh MGLL PC3 (Human, μM): concentration not given (μM). Put shortly:
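Human prefrontal cortex or cell membrane proteomes (1.0 mg/mL total protein) were preincubated with varying inhibitor concentrations for 30 min at 37° C. FP-Rh or HT-01 probe (50 μM DMSO stock) was then added for 30 min at room temperature, and samples were quenched in SDS loading buffer and resolved by SDS-PAGE.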

The target of assay [2] is T2, ABHD6 (Mus musculus, UniProt Q8R2Y0).
T2 construct: Brain; from tissue; host or cells: mouse brain proteome
T2 sequence (Q8R2Y0 1-336): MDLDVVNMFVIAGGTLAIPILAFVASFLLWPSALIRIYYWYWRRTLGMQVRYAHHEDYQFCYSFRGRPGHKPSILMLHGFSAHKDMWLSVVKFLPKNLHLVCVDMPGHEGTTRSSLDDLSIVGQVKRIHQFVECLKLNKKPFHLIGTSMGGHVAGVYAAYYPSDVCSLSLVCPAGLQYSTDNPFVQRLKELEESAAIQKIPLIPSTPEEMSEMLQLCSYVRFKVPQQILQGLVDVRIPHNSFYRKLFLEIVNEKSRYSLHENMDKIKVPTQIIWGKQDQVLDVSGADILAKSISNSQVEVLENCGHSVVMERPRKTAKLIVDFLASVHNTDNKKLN
The assay can be described thus: In vitro competitive activity-based protein profiling, mouse brain proteome (ABHD6). Conditions: mouse brain proteome; concentration not given (μM). As to the method: [The source words this procedure for another target and reports this target under the same test.] In Vitro Competitive Activity-Based Protein Profiling.
Proteomes (human prefrontal cortex or cell membrane fractions) (50 μL, 1.0 mg/mL total protein concentration) were preincubated with varying concentrations of inhibitors at 37° C. After 30 min, FP-Rh or HT-01 (1.0 μL, 50 μM in DMSO) was added and the mixture was incubated for another 30 min at room temperature. Reactions were quenched with SDS loading buffer (15 μL-4×) and run on SDS-PAGE.

In assay [3] the target is T3, MGLL (Mus musculus, UniProt O35678).
T3 construct: Brain; from tissue; host or cells: mouse brain proteome
T3 sequence (O35678 1-303): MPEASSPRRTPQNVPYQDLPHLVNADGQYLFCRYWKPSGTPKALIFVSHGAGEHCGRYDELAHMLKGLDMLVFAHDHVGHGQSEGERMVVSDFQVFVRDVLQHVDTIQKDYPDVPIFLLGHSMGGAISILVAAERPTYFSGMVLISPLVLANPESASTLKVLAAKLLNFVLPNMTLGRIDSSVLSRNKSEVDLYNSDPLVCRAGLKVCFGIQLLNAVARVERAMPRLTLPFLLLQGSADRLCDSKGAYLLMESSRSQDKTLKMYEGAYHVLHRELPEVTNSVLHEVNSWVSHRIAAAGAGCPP
Put plainly: In vitro competitive activity-based protein profiling, mouse brain proteome (MGLL). Conditions: concentration not given (μM).

By IC50 is commonly meant the concentration needed to halve the response being measured.

The structures appear in SMILES notation.

As for `O=C(O)CN1CC2CC1CN2c1cc(C(F)(F)F)ccc1CN1CCCC12CCN(C(=O)OC(C(F)(F)F)C(F)(F)F)CC2` (stereo not shown) [Example 126, 2-(5-{2-[(8-{[(1,1,1,3,3,3-Hexafluoropropan-2-yl)oxy]carbonyl}-1,8-diazaspiro[4.5]decan-1-yl)methyl]-5-(trifluoromethyl)phenyl}-2,5-diazabicyclo[2.2.1]heptan-2-yl)acetic acid], in assay [1], the “% Inh MGLL PFC (Human, μM)” value is listed as “### (### is ≥75%)”. In assay [2], the “% Inh ABHD6 Brain (Mouse, μM)” value was “# (# is ≤25%)”. Further, the “% Inh MGLL Brain (Mouse, μM)” value in assay [3] is listed as “### (### is ≥75%)”.

In the case of `O=C(O)C1CCN(c2c(Cl)cccc2CN2CCC3(CC2)CCN(C(=O)OC(C(F)(F)F)C(F)(F)F)C3)CC1` [Example 218, l-(2-Chloro-6-{(2-(((1,1,1,3,3,3-hexafluoropropan-2-yl)oxy)carbonyl)-2,8-diazaspiro[4.5]decan-8-yl)methyl)phenyl)piperidine-4-carboxylic acid], the “% Inh MGLL PFC (Human, μM)” value in assay [1] was “### (### is ≥75%)”. The “% Inh ABHD6 Brain (Mouse, μM)” value in assay [2] was “# (# is ≤25%)”. Also, the “% Inh MGLL Brain (Mouse, μM)” value in assay [3] is listed as “### (### is ≥75%)”.

With `O=C(O)C1CCN(c2cc(F)ccc2CN2CC3(CCN(C(=O)OC(C(F)(F)F)C(F)(F)F)CC3)C2)CC1` [Example 123, l-(5-Fluoro-2-((7-(((1,1,1,3,3,3-hexafluoropropan-2-yl)oxy)carbonyl)-2,7-diazaspiro[3,5]nonan-2-yl)methyl)phenyl)piperidine-4-carboxylic acid], the “% Inh MGLL PFC (Human, μM)” value in assay [1] is “### (### is ≥75%)”. For the same compound, in assay [2], the “% Inh ABHD6 Brain (Mouse, μM)” value is recorded as “# (# is ≤25%)”. Also, the “% Inh MGLL Brain (Mouse, μM)” value in assay [3] is “### (### is ≥75%)”.

On to `CN(Cc1cc(C(F)(F)F)cc(C2(C(=O)O)CCCC2)c1)C1(C)CCN(C(=O)OC(C(F)(F)F)C(F)(F)F)CC1` [Example 138, l-(3-{[(1-{[(1,1,1,3,3,3-Hexafluoropropan-2-yl)oxy]carbonyl}-4-methylpiperidin-4-yl)(methyl)ainino]methyl}-5-(trifluoromethyl)phenyl)cyclop entane-1-carboxylic acid], for which the “% Inh MGLL PC3 (Human, μM)” value in assay [1] (PC3 cell proteome) is on record as “### (### is ≥75%)”. Besides, the “% Inh ABHD6 Brain (Mouse, μM)” value in assay [2] is listed as “### (### is ≥75%)”. For the same compound, the “% Inh MGLL Brain (Mouse, μM)” value in assay [3] is “### (### is ≥75%)”.

For `O=C(O)C1CCN(c2cc(C(F)(F)F)ccc2CN2CC3(CCN(C(=O)OC(C(F)(F)F)C(F)(F)F)CC3)C2)C1` (stereo not drawn) [Example 101, l-(2-((7-(((1,1,1,3,3,3-Hexafluoropropan-2-yl)oxy)carbonyl)-2,7-diazaspiro[3,5]nonan-2-yl)methyl)-5-(trifluoromethyl)phenyl)pyrroli-dine-3-carboxylic acid], the “% Inh MGLL PFC (Human, μM)” value in assay [1] is “### (### is ≥75%)”. The “% Inh ABHD6 Brain (Mouse, μM)” value in assay [2] is “### (### is ≥75%)”. Moreover, the “% Inh MGLL Brain (Mouse, μM)” value in assay [3] is “### (### is ≥75%)”.

Consider `CC1(OCc2cc(CN3CCC(C(=O)O)CC3)cc(C(F)(F)F)c2)CCN(C(=O)OC(C(F)(F)F)C(F)(F)F)CC1` [Example 25, 1-(3-(((1-(((1,1,1,3,3,3-Hexafluoropropan-2-yl)oxy)carbonyl)-4-methylpiperidin-4-yl)oxy)methyl)-5-(trifluoromethyl)benzyl)piperidine-4-carboxylic acid], for which, in assay [1] (PC3 cell proteome), the “IC50 MGLL PC3 (Human, μM)” value was “* * *” and the “% Inh MGLL PC3 (Human, μM)” value is “### (### is ≥75%)”. Further, the “% Inh ABHD6 Brain (Mouse, μM)” value in assay [2] was “### (### is ≥75%)”. The “% Inh MGLL Brain (Mouse, μM)” value in assay [3] is on record as “### (### is ≥75%)”.

With `O=C(O)C1CCCCN1c1cc(C(F)(F)F)ccc1CN1CC2(CCN(C(=O)OC(C(F)(F)F)C(F)(F)F)CC2)C1` (stereo not shown) [Example 23, 1-(2-((7-(((1,1,1,3,3,3-Hexafluoropropan-2-yl)oxy)carbonyl)-2,7-diazaspiro[3.5]nonan-2-yl)methyl)-5-(trifluoromethyl)phenyl)piperidine-2-carboxylic acid], the “% Inh MGLL PFC (Human, μM)” value in assay [1] is listed as “### (### is ≥75%)”. The “% Inh ABHD6 Brain (Mouse, μM)” value in assay [2] is “# (# is ≤25%)”. Moreover, the “% Inh MGLL Brain (Mouse, μM)” value in assay [3] is listed as “# (# is ≤25%)”.

In the case of `O=C(O)c1cc(CN2CC3(CCN(C(=O)OC(C(F)(F)F)C(F)(F)F)CC3)C2)ccc1C(F)(F)F` [Example 21, 5-((7-(((1,1,1,3,3,3-Hexafluoropropan-2-yl)oxy)carbonyl)-2,7-diazaspiro[3.5]nonan-2-yl)methyl)-2-(trifluoromethyl)benzoic acid], the “IC50 MGLL PC3 (Human, μM)” value in assay [1] (PC3 cell proteome) is on record as “* * *”. The “% Inh MGLL PFC (Human, μM)” value in assay [1] is “### (### is ≥75%)”. In assay [2], the “% Inh ABHD6 Brain (Mouse, μM)” value was “### (### is ≥75%)”. Further, the “% Inh MGLL Brain (Mouse, μM)” value in assay [3] was “### (### is ≥75%)”.

With `O=C(O)[C@H]1CCCN1C1CCN(c2cc(C(F)(F)F)ccc2CN2CCCC23CCN(C(=O)OC(C(F)(F)F)C(F)(F)F)CC3)CC1` [Example 160, (1-(2-((8-(((1,1,1,3,3,3-Hexafluoropropan-2-yl)oxy)carbonyl)-1,8-diazaspiro[4.5]decan-l-yl)methyl)-5-(trifluoromethyl)phenyl)piperidin-4-yl)-D-proline], the “% Inh MGLL PC3 (Human, μM)” value in assay [1] (PC3 cell proteome) is “### (### is ≥75%)”. For the same compound, the IC50 in assay [1] (PC3 cell proteome, read-out: IC50 MGLL PC3 (Human)) was less than 100 nM. For the same compound, the “% Inh ABHD6 Brain (Mouse, μM)” value in assay [2] is “# (# is ≤25%)”. Moreover, in assay [3], the “% Inh MGLL Brain (Mouse, μM)” value is listed as “### (### is ≥75%)”.

Consider `CC1(OCc2cc(N3CCC(C(=O)O)CC3)cc(C(F)(F)F)c2)CCN(C(=O)OC(C(F)(F)F)C(F)(F)F)CC1` [Example 227, l-(3-(((1-(((1,1,1,3,3,3-Hexafluoropropan-2-yl)oxy)carbonyl)-4-melhylpiperidin-4-yl)oxy)methyl)-5-(trifluoromethyl)phenyl) piperidine-4-carboxylic acid], for which, in assay [1], the “% Inh MGLL PFC (Human, μM)” value was “### (### is ≥75%)”. Besides, the “% Inh ABHD6 Brain (Mouse, μM)” value in assay [2] is “## (## is between 25 and 75%)”. For the same compound, in assay [3], the “% Inh MGLL Brain (Mouse, μM)” value is given as “### (### is ≥75%)”.

As to `O=C(OC(C(F)(F)F)C(F)(F)F)N1CCC2(CCCN2Cc2ccc(C(F)(F)F)cc2C2(C(=O)O)CCCC2)CC1` [Example 7, 1-(2-((8-(((1,1,1,3,3,3-hexafluoropropan-2-yl)oxy)carbonyl)-1,8-diazaspiro[4.5]decan-1-yl)methyl)-5-(trifluoromethyl)phenyl)cyclopentane-1-carboxylic acid], the “IC50 MGLL PC3 (Human, μM)” value in assay [1] (PC3 cell proteome) was “* * *”. For the same compound, in assay [1], the “% Inh MGLL PFC (Human, μM)” value was “### (### is ≥75%)”. The “% Inh ABHD6 Brain (Mouse, μM)” value in assay [2] is on record as “# (# is ≤25%)”. In assay [3], the “% Inh MGLL Brain (Mouse, μM)” value was “### (### is ≥75%)”.

As to `O=C(OC(C(F)(F)F)C(F)(F)F)N1CCC2(CC1)CCN(C(=O)c1cc(Cl)cc(C(F)(F)F)c1)C2` [Example 110, 1,1,1,3,3,3-Hexafluoropropan-2-yl 2-(3-chloro-5-(trifluoromethyl)benzoyl)-2,8-diazaspiro[4.5]decane-8-carboxylate], in assay [1], the “% Inh MGLL PFC (Human, μM)” value was “### (### is ≥75%)”. Moreover, the “% Inh ABHD6 Brain (Mouse, μM)” value in assay [2] is given as “### (### is ≥75%)”. The “% Inh MGLL Brain (Mouse, μM)” value in assay [3] is given as “### (### is ≥75%)”.

`CC1(N(CC(=O)O)Cc2ccc(C(F)(F)F)cc2N2CCOCC2)CCN(C(=O)OC(C(F)(F)F)C(F)(F)F)CC1` [Example 124, N-(1-(((1,1,1,3,3,3-Hexafluoropropan-2-yl)oxy)cart>onyl)-4-methylpiperidin-4-yl)-N-(2-morpholino-4-(trifluoromethyl)benzyl) glycine]: in assay [1], the “% Inh MGLL PFC (Human, μM)” value was “### (### is ≥75%)”. For the same compound, the “% Inh ABHD6 Brain (Mouse, μM)” value in assay [2] is “# (# is ≤25%)”. The “% Inh MGLL Brain (Mouse, μM)” value in assay [3] is recorded as “### (### is ≥75%)”.

For `CC1(C(=O)O)CCN(c2cc(C(F)(F)F)ccc2CN2CC3(CCN(C(=O)OC(C(F)(F)F)C(F)(F)F)CC3)C2)C1` (stereo not drawn) [Example 115, l-(2-((7-(((1,1,1,3,3,3-Hexafluoropropan-2-yl)oxy)carbonyl)-2,7-diazaspiro[3,5]nonan-2-yl)methyl)-5-(trifluoromethyl)phenyl)-3-methylpyrrolidine-3-carboxylic acid], in assay [1], the “% Inh MGLL PFC (Human, μM)” value is “### (### is ≥75%)”. Further, in assay [2], the “% Inh ABHD6 Brain (Mouse, μM)” value is reported as “# (# is ≤25%)”. For the same compound, the “% Inh MGLL Brain (Mouse, μM)” value in assay [3] is given as “### (### is ≥75%)”.
